Laboratory results published in ChEMBL document CHEMBL1142146, “Quinupristin-dalfopristin nonsusceptibility in pneumococci from sickle cell disease patients” (2007).
Converted amounts (≈) assume the structure as drawn.

Experiments:
Assay type in all cases: functional
Streptococcus pneumoniae [1] = assay: Antibacterial activity against Pneumococcus DAW8 isolated from sickle cell disease patient
Streptococcus pneumoniae [2] = assay: Antibacterial activity against Pneumococcus DAW6 isolated from sickle cell disease patient
Streptococcus pneumoniae [3] = assay: Antibacterial activity against Pneumococcus DAW2 isolated from sickle cell disease patient
Streptococcus pneumoniae [4] = assay: Antibacterial activity against Pneumococcus DAW9 isolated from sickle cell disease patient
Streptococcus pneumoniae [5] = assay: Antibacterial activity against Pneumococcus DAW12 isolated from sickle cell disease patient
Streptococcus pneumoniae [6] = assay: Antibacterial activity against Pneumococcus DAW13 isolated from sickle cell disease patient
Streptococcus pneumoniae [7] = assay: Antibacterial activity against Pneumococcus DAW14 isolated from sickle cell disease patient
Streptococcus pneumoniae [8] = assay: Antibacterial activity against Pneumococcus DAW15 isolated from sickle cell disease patient
Streptococcus pneumoniae [9] = assay: Antibacterial activity against Pneumococcus DAW19 isolated from sickle cell disease patient
Streptococcus pneumoniae [10] = assay: Antibacterial activity against Pneumococcus DAW22 isolated from sickle cell disease patient
Streptococcus pneumoniae [11] = assay: Antibacterial activity against Pneumococcus DAW24 isolated from sickle cell disease patient
Streptococcus pneumoniae [12] = assay: Antibacterial activity against Pneumococcus DAW26 isolated from sickle cell disease patient
Streptococcus pneumoniae [13] = assay: Antibacterial activity against Pneumococcus DAW27 isolated from sickle cell disease patient
Streptococcus pneumoniae [14] = assay: Antibacterial activity against Pneumococcus DAW51 isolated from sickle cell disease patient
Streptococcus pneumoniae [15] = assay: Antibacterial activity against Pneumococcus DAW53 isolated from sickle cell disease patient
Streptococcus pneumoniae [16] = assay: Antibacterial activity against Pneumococcus DAW57 isolated from sickle cell disease patient
Streptococcus pneumoniae [17] = assay: Antibacterial activity against Pneumococcus DAW61 isolated from sickle cell disease patient
Streptococcus pneumoniae [18] = assay: Antibacterial activity against Pneumococcus DAW62 isolated from sickle cell disease patient
Streptococcus pneumoniae [19] = assay: Antibacterial activity against Pneumococcus DAW65 isolated from sickle cell disease patient
Streptococcus pneumoniae [20] = assay: Antibacterial activity against Pneumococcus DAW66 isolated from sickle cell disease patient
Streptococcus pneumoniae [21] = assay: Antibacterial activity against Pneumococcus DAW67 isolated from sickle cell disease patient
Streptococcus pneumoniae [22] = assay: Antibacterial activity against Pneumococcus DAW68 isolated from sickle cell disease patient
Streptococcus pneumoniae [23] = assay: Antibacterial activity against Pneumococcus DAW70 isolated from sickle cell disease patient
Streptococcus pneumoniae [24] = assay: Antibacterial activity against Pneumococcus DAW75 isolated from sickle cell disease patient
Streptococcus pneumoniae [25] = assay: Antibacterial activity against Pneumococcus DAW86 isolated from sickle cell disease patient
Streptococcus pneumoniae [26] = assay: Antibacterial activity against Pneumococcus CDC001 isolated from sickle cell disease patient
Streptococcus pneumoniae [27] = assay: Antibacterial activity against Pneumococcus CDC013 isolated from sickle cell disease patient
Streptococcus pneumoniae [28] = assay: Antibacterial activity against Pneumococcus CDC018 isolated from sickle cell disease patient
Streptococcus pneumoniae [29] = assay: Antibacterial activity against Pneumococcus CDC020 isolated from sickle cell disease patient
Streptococcus pneumoniae [30] = assay: Antibacterial activity against Pneumococcus CDC023 isolated from sickle cell disease patient
Streptococcus pneumoniae [31] = assay: Antibacterial activity against Pneumococcus CDC050 isolated from sickle cell disease patient
Streptococcus pneumoniae [32] = assay: Antibacterial activity against Pneumococcus CDC063 isolated from sickle cell disease patient
Streptococcus pneumoniae [33] = assay: Antibacterial activity against Pneumococcus CDC068 isolated from sickle cell disease patient

SMILES	MIC (Streptococcus pneumoniae [1])	MIC (Streptococcus pneumoniae [2])	MIC (Streptococcus pneumoniae [3])	MIC (Streptococcus pneumoniae [4])	MIC (Streptococcus pneumoniae [5])	MIC (Streptococcus pneumoniae [6])	MIC (Streptococcus pneumoniae [7])	MIC (Streptococcus pneumoniae [8])	MIC (Streptococcus pneumoniae [9])	MIC (Streptococcus pneumoniae [10])	MIC (Streptococcus pneumoniae [11])	MIC (Streptococcus pneumoniae [12])	MIC (Streptococcus pneumoniae [13])	MIC (Streptococcus pneumoniae [14])	MIC (Streptococcus pneumoniae [15])	MIC (Streptococcus pneumoniae [16])	MIC (Streptococcus pneumoniae [17])	MIC (Streptococcus pneumoniae [19])	MIC (Streptococcus pneumoniae [20])	MIC (Streptococcus pneumoniae [23])	other results
CC[C@H]1OC(=O)[C@H](C)[C@@H](O[C@H]2C[C@@](C)(OC)[C@@H](O)[C@H](C)O2)[C@H](C)[C@@H](O[C@@H]2O[C@H](C)C[C@H](N(C)C)[C@H]2O)[C@](C)(O)C[C@@H](C)C(=O)[C@H](C)[C@@H](O)[C@]1(C)O [ERYTHROMYCIN]	0.125 µg/mL (≈ 0.17 µM)	0.25 µg/mL (≈ 0.341 µM)	0.125 µg/mL (≈ 0.17 µM)	256 µg/mL (≈ 349 µM)	0.19 µg/mL (≈ 0.259 µM)	4 µg/mL (≈ 5.45 µM)	0.19 µg/mL (≈ 0.259 µM)	0.19 µg/mL (≈ 0.259 µM)	24 µg/mL (≈ 32.7 µM)	256 µg/mL (≈ 349 µM)	0.125 µg/mL (≈ 0.17 µM)	0.125 µg/mL (≈ 0.17 µM)	256 µg/mL (≈ 349 µM)	0.19 µg/mL (≈ 0.259 µM)	0.25 µg/mL (≈ 0.341 µM)	256 µg/mL (≈ 349 µM)	256 µg/mL (≈ 349 µM)	0.19 µg/mL (≈ 0.259 µM)	0.19 µg/mL (≈ 0.259 µM)	0.19 µg/mL (≈ 0.259 µM)	MIC (Streptococcus pneumoniae [18]): 0.125 µg/mL (≈ 0.17 µM); MIC (Streptococcus pneumoniae [21]): 0.125 µg/mL (≈ 0.17 µM); MIC (Streptococcus pneumoniae [22]): 0.125 µg/mL (≈ 0.17 µM); MIC (Streptococcus pneumoniae [24]): 0.19 µg/mL (≈ 0.259 µM); MIC (Streptococcus pneumoniae [25]): 0.19 µg/mL (≈ 0.259 µM); MIC (Streptococcus pneumoniae [26]): 0.19 µg/mL (≈ 0.259 µM); MIC (Streptococcus pneumoniae [27]): 0.125 µg/mL (≈ 0.17 µM); MIC (Streptococcus pneumoniae [28]): 256 µg/mL (≈ 349 µM); MIC (Streptococcus pneumoniae [29]): 256 µg/mL (≈ 349 µM); MIC (Streptococcus pneumoniae [30]): 0.125 µg/mL (≈ 0.17 µM); MIC (Streptococcus pneumoniae [31]): 0.25 µg/mL (≈ 0.341 µM); MIC (Streptococcus pneumoniae [32]): 32 µg/mL (≈ 43.6 µM); MIC (Streptococcus pneumoniae [33]): 0.19 µg/mL (≈ 0.259 µM)
CCC[C@@H]1C[C@@H](C(=O)N[C@@H]([C@H]2O[C@H](SC)[C@H](O)[C@@H](O)[C@H]2O)[C@H](C)Cl)N(C)C1 [CLINDAMYCIN]	0.25 µg/mL (≈ 0.588 µM)	0.038 µg/mL (≈ 0.0894 µM)	0.25 µg/mL (≈ 0.588 µM)	256 µg/mL (≈ 602 µM)	0.25 µg/mL (≈ 0.588 µM)	0.25 µg/mL (≈ 0.588 µM)	0.25 µg/mL (≈ 0.588 µM)	0.38 µg/mL (≈ 0.894 µM)	0.19 µg/mL (≈ 0.447 µM)	256 µg/mL (≈ 602 µM)	0.25 µg/mL (≈ 0.588 µM)	0.25 µg/mL (≈ 0.588 µM)	256 µg/mL (≈ 602 µM)	0.25 µg/mL (≈ 0.588 µM)	0.25 µg/mL (≈ 0.588 µM)	256 µg/mL (≈ 602 µM)	0.5 µg/mL (≈ 1.18 µM)	0.25 µg/mL (≈ 0.588 µM)	0.25 µg/mL (≈ 0.588 µM)	0.38 µg/mL (≈ 0.894 µM)	MIC (Streptococcus pneumoniae [24]): 0.125 µg/mL (≈ 0.294 µM); MIC (Streptococcus pneumoniae [25]): 0.25 µg/mL (≈ 0.588 µM); MIC (Streptococcus pneumoniae [26]): 0.19 µg/mL (≈ 0.447 µM); MIC (Streptococcus pneumoniae [28]): 256 µg/mL (≈ 602 µM); MIC (Streptococcus pneumoniae [30]): 0.125 µg/mL (≈ 0.294 µM); MIC (Streptococcus pneumoniae [31]): 0.25 µg/mL (≈ 0.588 µM); MIC (Streptococcus pneumoniae [32]): 0.25 µg/mL (≈ 0.588 µM); MIC (Streptococcus pneumoniae [33]): 0.25 µg/mL (≈ 0.588 µM)
